Paper PMC7004409 (PLoS Pathogens, 2020)

How the values were obtained:
Format in all cases: biochemical
[1] = target: T1, HIV-1 GagΔMA (GagΔMAΔp1Δp6) (Human immunodeficiency virus type 1 (NEW YORK-5 ISOLATE), UniProt P12493); settings: GT25 oligo, pH 6
T1 construct: gene gag; Gag lacking MA, p1 and p6 (CA-SP1-NC); SUMO-tag purification, E. coli

[2] = target: T2, BIV GagΔMA (Bovine immunodeficiency virus R29, UniProt P19558); settings: 50 mM MES pH 6.5, 100 mM NaCl, GT50 oligo, dilution, 22 °C
T2 construct: gene gag; Gag lacking MA; SUMO-tag purification

[3] = target: T3, HIV-2 GagΔMA (Human immunodeficiency virus type 2 (ISOLATE ROD), UniProt P04590); settings: 50 mM Tris pH 8, 100 mM NaCl, GT25 oligo, dialysis, 22 °C
T3 construct: gene gag; Gag lacking MA; SUMO-tag purification

[4] = target: T4, SIV GagΔMA (Simian immunodeficiency virus (MM251 ISOLATE), UniProt P05893); settings: 50 mM Tris pH 8, 100 mM NaCl, GT25 oligo, dialysis, 22 °C
T4 construct: gene gag; Gag lacking MA; SUMO-tag purification

[5] = target: T5, FIV GagΔMA (Feline immunodeficiency virus (isolate Petaluma), UniProt P16087); settings: 50 mM Bis-Tris propane, 150 mM NaCl, GT50 oligo, dilution, 22 °C
T5 construct: gene gag; Gag lacking MA; SUMO-tag purification

| SMILES | fold increase of round VLPs at 10 μM [1] [fold] | VLP number with / without IP6 [2] | VLP number with / without IP6 [3] | VLP number with / without IP6 [4] | VLP number with / without IP6 [5] |
| --- | --- | --- | --- | --- | --- |
| O=P(O)(O)O[C@@H]1[C@@H](OP(=O)(O)O)[C@H](OP(=O)(O)O)[C@H](O)[C@H](OP(=O)(O)O)[C@H]1OP(=O)(O)O [IP5] | 1000 |  |  |  |  |
| O=P(O)(O)O[C@H]1[C@H](OP(=O)(O)O)[C@@H](OP(=O)(O)O)[C@H](OP(=O)(O)O)[C@@H](OP(=O)(O)O)[C@H]1OP(=O)(O)O [IP6] |  | in the presence of IP6, spherical VLP assembly consistent with an immature lattice was observed | in the presence of IP6, spherical VLP assembly consistent with an immature lattice was observed | in the presence of IP6, spherical VLP assembly consistent with an immature lattice was observed | in the presence of IP6, spherical VLP assembly consistent with an immature lattice was observed |
